The subject of this test is Purified tubulin with GST-tagged CPAP PN2-3 (pull-down). Briefly: GST-PN2-3 pull-down, semi-quantitative Western blot. The note with it: protein-protein interaction inhibition. Format: binding. A general note: Immunoblotting shows a protein as a band on a membrane.

This is an account of results in paper PMC6331730 (The EMBO Journal, 2018).

Structures are written as SMILES.

As usually defined, the IC50 is the point on the concentration scale where inhibition reaches its midpoint. Low values mean greater potency in that assay, high ones weaker potency in that assay. Compound `COc1ncc2cc3ccccc3nc2c1C#N` [CCB02, 3‐Methoxybenzo[b][1,6]naphthyridine‐4‐carbonitrile] gave an IC50 of about 441 nM.
